In PMC10092844, “Inhibition profile of trifludimoxazin towards PPO2 target site mutations” (Pest Management Science, 2022):
Where a chain is given by its changes, count along the chain named.

Tests used:
[1] = biological target: T1, PPO2 R128H ΔG210 (Amaranthus tuberculatus, UniProt Q0NZW9, DEL210/R128H); experiment: biochemical; type: biochemical
T1 sequence (Q0NZW9 with tags, fused parts or gaps R128H/DEL210): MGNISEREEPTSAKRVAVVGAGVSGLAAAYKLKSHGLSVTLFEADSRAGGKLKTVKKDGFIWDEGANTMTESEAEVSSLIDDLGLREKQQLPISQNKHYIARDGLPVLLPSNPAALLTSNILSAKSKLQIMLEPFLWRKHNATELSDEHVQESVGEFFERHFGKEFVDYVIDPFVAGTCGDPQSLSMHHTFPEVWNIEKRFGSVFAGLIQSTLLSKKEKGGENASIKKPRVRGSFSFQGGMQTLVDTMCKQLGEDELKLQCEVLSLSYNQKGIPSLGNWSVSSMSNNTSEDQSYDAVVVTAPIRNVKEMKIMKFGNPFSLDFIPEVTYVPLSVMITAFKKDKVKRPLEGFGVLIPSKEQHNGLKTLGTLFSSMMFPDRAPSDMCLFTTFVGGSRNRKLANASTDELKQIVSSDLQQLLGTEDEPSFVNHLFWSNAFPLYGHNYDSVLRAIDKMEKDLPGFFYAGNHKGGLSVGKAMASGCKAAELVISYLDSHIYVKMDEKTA

[2] = biological target: T2, PPO2 R128E ΔG210 (Amaranthus tuberculatus, UniProt Q0NZW9, DEL210/R128E); experiment: biochemical; type: biochemical
T2 sequence (Q0NZW9 with tags, fused parts or gaps R128E/DEL210): T1 sequence (Q0NZW9 with tags, fused parts or gaps R128H/DEL210) with H98E

[3] = biological target: T3, PPO2 R128L ΔG210 (Amaranthus tuberculatus, UniProt Q0NZW9, DEL210-210/R128L); experiment: biochemical; type: biochemical
T3 sequence (Q0NZW9 with tags, fused parts or gaps R128L/DEL210-210): T1 sequence (Q0NZW9 with tags, fused parts or gaps R128H/DEL210) with H98L

[4] = biological target: T4, PPO2 R128Q ΔG210 (Amaranthus tuberculatus, UniProt Q0NZW9, DEL210-210/R128Q); experiment: biochemical; type: biochemical
T4 sequence (Q0NZW9 with tags, fused parts or gaps R128Q/DEL210-210): T1 sequence (Q0NZW9 with tags, fused parts or gaps R128H/DEL210) with H98Q

[5] = biological target: T5, PPO2 R128T ΔG210 in Escherichia coli hemG (Amaranthus tuberculatus, UniProt Q0NZW9, DEL210-210/R128T, cells depend on it); type: cell-based; conditions: read-out: IC50 (E. coli hemG growth)
T5 sequence (Q0NZW9 with tags, fused parts or gaps R128T/DEL210-210): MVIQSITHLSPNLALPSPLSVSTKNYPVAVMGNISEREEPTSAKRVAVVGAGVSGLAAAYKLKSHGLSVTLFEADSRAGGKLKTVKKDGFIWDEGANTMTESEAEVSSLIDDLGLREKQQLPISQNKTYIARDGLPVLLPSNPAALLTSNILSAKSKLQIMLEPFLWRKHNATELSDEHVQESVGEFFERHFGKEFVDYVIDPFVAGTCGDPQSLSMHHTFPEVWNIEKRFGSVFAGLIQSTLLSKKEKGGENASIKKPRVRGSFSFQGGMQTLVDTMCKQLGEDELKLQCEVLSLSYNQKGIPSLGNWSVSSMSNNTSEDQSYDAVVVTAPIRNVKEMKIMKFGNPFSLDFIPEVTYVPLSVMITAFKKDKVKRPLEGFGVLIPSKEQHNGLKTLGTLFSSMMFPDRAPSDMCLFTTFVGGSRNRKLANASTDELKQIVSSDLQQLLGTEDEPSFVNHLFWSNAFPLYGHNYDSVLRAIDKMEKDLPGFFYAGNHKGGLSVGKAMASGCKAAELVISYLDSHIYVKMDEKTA

[6] = biological target: T6, PPO2 R128L ΔG210 in Escherichia coli hemG (Amaranthus tuberculatus, UniProt Q0NZW9, DEL210-210/R128L, cells depend on it); type: cell-based; conditions: read-out: IC50 (E. coli hemG growth)
T6 sequence (Q0NZW9 with tags, fused parts or gaps R128L/DEL210-210): T1 sequence (Q0NZW9 with tags, fused parts or gaps R128H/DEL210) with H98L

## CS(=O)(=O)NC(=O)c1cc(Oc2ccc(C(F)(F)F)cc2Cl)ccc1[N+](=O)[O-] [Fomesafen, fomesafen]
[1]
  IC50: > 10000 nM
[2]
  IC50: > 10000 nM
[3]
  IC50: > 10000 nM
[4]
  IC50: > 10000 nM

## CCOC(=O)C(C)OC(=O)c1cc(Oc2ccc(C(F)(F)F)cc2Cl)ccc1[N+](=O)[O-] (centres unmarked) [Lactofen, lactofen]
[5]
  IC50: > 10000 nM
[1]
  IC50: 1590 nM
[6]
  IC50: > 10000 nM
[2]
  IC50: 649 nM
[3]
  IC50: 649 nM
[4]
  IC50: 1750 nM

## CC(C)N(C)S(=O)(=O)NC(=O)c1cc(-n2c(=O)cc(C(F)(F)F)n(C)c2=O)c(F)cc1Cl [Saflufenacil, saflufenacil]
[5]
  IC50: > 10000 nM
[1]
  IC50: > 10000 nM
[6]
  IC50: > 10000 nM
[2]
  IC50: > 10000 nM
[3]
  IC50: > 10000 nM
[4]
  IC50: > 10000 nM

## C#CCN1C(=O)C(F)(F)Oc2cc(F)c(-n3c(=O)n(C)c(=S)n(C)c3=O)cc21 [Trifludimoxazin, trifludimoxazin]
[5]
  IC50: 67.5 nM
[1]
  IC50: 30.2 nM
  Resistance factor: 123
[6]
  IC50: 39.9 nM
[2]
  IC50: 8.61 nM
  Resistance factor: 35
[3]
  IC50: 5.68 nM
  Resistance factor: 23
[4]
  IC50: 14.5 nM
  Resistance factor: 59
